Consider one compound from patent US10871487B2, “FRET-based glucose-detection molecules” (priority 2016, dated 2020).

SMILES strings stand for the structures.

Assay [1] concerns the target T1, FRET-based glucose-detection molecule D274, SEQ ID No. 1, glucose-binding region derived from E. coli mg1B (galactose binding protein), residue 16 = Q (Escherichia coli, UniProt P0AEE5, DELINS298-299[…]/F39Q).
T1 construct: red acceptor fluorophore at N-terminus; FRET sensor D274; made in E. coli, purified
The experiment in a line: FRET:F ratio at different glucose concentrations, Kd extracted from curve (D274). To be noted: FIG. 5B. The source says: (§1) Reference is also made to FIG. 2, which is a graph that illustrates, in a generalized manner, FRET behavior of molecule 20 (and of the molecules that it represents), in accordance with some applications of the invention. Three important features of molecules suitable for FRET-based glucose detection are: • (1) High contrast. That is, a large difference between the FRET:F ratio in the disassociated state and the FRET:F ratio in the associated state (referred to herein as “delta ratio” (“dR”)). […]
(§2) Reference is now made to FIG. 4, which is a set of graphs which show, for some of the molecules described hereinabove, the FRET:F ratio (y axis) at different glucose concentrations, measured at 35 degrees C.
(§3) The measurements were performed on proteins that were extracted from E. coli (in which they were produced) and purified in 50 mM Tris (pH 7.6, 1 mM CaCl_2, 100 mM NaCl_2). Measurements were performed using an Infinite (R) 200 plate reader or on a fluoroscopic microscope. FRET-based emission was measured by applying excitation at 475 nm and detecting emission at 640-800 nm. Direct fluorescence of the acceptor fluorophore was measured by applying excitation at 575 nm and detecting emission at 640-800 nm. Curves were generated from the measured points (typically 10) by a non-linear interpolation, and Kd and dR were extracted. […]

Assay [2] addresses T2, FRET-based glucose-detection molecule D267, glucose-binding region derived from E. coli mg1B (galactose binding protein), 16 = N (Escherichia coli, UniProt P0AEE5, F39N).
T2 construct: made in E. coli, purified
Put plainly: Kd of residue 16 variant at room temperature (D267).
Source text: (§4) Reference is also made to FIG. 2, which is a graph that illustrates, in a generalized manner, FRET behavior of molecule 20 (and of the molecules that it represents), in accordance with some applications of the invention. Three important features of molecules suitable for FRET-based glucose detection are: • (1) High contrast. That is, a large difference between the FRET:F ratio in the disassociated state and the FRET:F ratio in the associated state (referred to herein as “delta ratio” (“dR”)). In FIG. 2, this is represented as the difference between the highest FRET:F ratio and the lowest FRET:F ratio on the curve. • (2) High sensitivity at physiologically-relevant glucose concentrations when at physiologically-relevant temperatures. […]
as §3

Assay [3] has as its target T3, FRET-based glucose-detection molecule D277, SEQ ID No. 2, glucose-binding region derived from E. coli mg1B (galactose binding protein), residue 16 = Q (Escherichia coli, UniProt P0AEE5, DELINS298-299[…]/F39Q).
T3 construct: red acceptor fluorophore at N-terminus with linker; FRET sensor D277; made in E. coli, purified
The experiment in a line: FRET:F ratio at different glucose concentrations, Kd extracted from curve (D277). To be noted: FIG. 5B.
Source text: as §1, §2, §3

Assay [4] concerns the target T4, FRET-based glucose-detection molecule D198, glucose-binding region derived from E. coli mg1B (galactose binding protein), 16 = A (Escherichia coli, UniProt P0AEE5, F39A).
T4 construct: made in E. coli, purified
Put plainly: Kd of residue 16 variant at room temperature (D198).
Source text: as §4, §3

The target of assay [5] is T5, FRET-based glucose-detection molecule D241, glucose-binding region derived from E. coli mg1B (galactose binding protein), 16 = Q (Escherichia coli, UniProt P0AEE5, F39Q).
T5 construct: made in E. coli, purified
T5 sequence (P0AEE5 24-332 F39Q limits assumed): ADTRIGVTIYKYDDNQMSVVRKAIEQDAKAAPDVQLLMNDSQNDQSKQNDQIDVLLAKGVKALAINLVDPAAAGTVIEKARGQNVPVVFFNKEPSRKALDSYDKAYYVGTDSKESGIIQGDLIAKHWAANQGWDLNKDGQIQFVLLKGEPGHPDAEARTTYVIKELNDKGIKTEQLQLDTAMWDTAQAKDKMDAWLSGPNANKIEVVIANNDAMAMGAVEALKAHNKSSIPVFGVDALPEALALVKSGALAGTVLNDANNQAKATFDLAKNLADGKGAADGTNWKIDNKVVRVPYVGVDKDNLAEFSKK
The experiment in a line: Kd of residue 16 variant at room temperature (D241).
Source text: as §4, §3

For assay [6], the target named is T6, FRET-based glucose-detection molecule D278, SEQ ID No. 3, glucose-binding region derived from E. coli mg1B (galactose binding protein), residue 16 = Q (Escherichia coli, UniProt P0AEE5, DELINS298-299[…]/F39Q).
T6 construct: red acceptor fluorophore at N-terminus with linker; FRET sensor D278; made in E. coli, purified
T6 sequence (P0AEE5 other isoform, or with tags, fused parts or gaps with the stated changes): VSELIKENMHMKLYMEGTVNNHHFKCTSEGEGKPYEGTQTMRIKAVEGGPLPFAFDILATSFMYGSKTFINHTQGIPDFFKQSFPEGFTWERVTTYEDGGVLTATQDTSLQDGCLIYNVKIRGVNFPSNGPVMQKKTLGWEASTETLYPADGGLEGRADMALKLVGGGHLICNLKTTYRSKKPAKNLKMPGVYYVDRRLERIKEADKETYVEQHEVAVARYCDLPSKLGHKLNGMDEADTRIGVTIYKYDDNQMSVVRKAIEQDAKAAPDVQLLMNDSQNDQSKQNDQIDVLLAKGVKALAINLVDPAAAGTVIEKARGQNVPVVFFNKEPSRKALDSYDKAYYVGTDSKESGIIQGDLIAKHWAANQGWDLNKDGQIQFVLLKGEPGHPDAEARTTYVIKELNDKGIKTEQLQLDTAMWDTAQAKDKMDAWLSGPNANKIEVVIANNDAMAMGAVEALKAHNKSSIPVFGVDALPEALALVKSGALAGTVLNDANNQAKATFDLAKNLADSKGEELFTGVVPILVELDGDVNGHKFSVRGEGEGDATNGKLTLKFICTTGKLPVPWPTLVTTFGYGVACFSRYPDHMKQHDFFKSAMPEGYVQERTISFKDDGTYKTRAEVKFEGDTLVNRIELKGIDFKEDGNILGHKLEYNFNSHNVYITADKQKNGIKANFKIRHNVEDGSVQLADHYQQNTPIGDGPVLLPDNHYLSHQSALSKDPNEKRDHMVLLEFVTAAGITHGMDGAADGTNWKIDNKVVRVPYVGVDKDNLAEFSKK
Put plainly: FRET:F ratio at different glucose concentrations, Kd extracted from curve (D278). As to conditions: FIG. 5B.
Source text: as §1, §2, §3

Assay [7] addresses T7, FRET-based glucose-detection molecule D263, glucose-binding region derived from E. coli mg1B (galactose binding protein), 16 = V (Escherichia coli, UniProt P0AEE5, F39V).
T7 construct: made in E. coli, purified
The experiment in a line: Kd of residue 16 variant at room temperature (D263).
Source text: as §4, §3

Assay [8] addresses T8, FRET-based glucose-detection molecule D279, SEQ ID No. 4, glucose-binding region derived from E. coli mg1B (galactose binding protein), residue 16 = Q (Escherichia coli, UniProt P0AEE5, DELINS299-299[…]/F39Q).
T8 construct: red acceptor fluorophore at N-terminus; FRET sensor D279; made in E. coli, purified
The experiment in a line: FRET:F ratio at different glucose concentrations, Kd extracted from curve (D279). To be noted: FIG. 5B.
Source text: as §1, §2, §3

Usually Kd stands for the equilibrium constant for the complex coming apart.

T1 sequence (P0AEE5 other isoform, or with tags, fused parts or gaps with the stated changes): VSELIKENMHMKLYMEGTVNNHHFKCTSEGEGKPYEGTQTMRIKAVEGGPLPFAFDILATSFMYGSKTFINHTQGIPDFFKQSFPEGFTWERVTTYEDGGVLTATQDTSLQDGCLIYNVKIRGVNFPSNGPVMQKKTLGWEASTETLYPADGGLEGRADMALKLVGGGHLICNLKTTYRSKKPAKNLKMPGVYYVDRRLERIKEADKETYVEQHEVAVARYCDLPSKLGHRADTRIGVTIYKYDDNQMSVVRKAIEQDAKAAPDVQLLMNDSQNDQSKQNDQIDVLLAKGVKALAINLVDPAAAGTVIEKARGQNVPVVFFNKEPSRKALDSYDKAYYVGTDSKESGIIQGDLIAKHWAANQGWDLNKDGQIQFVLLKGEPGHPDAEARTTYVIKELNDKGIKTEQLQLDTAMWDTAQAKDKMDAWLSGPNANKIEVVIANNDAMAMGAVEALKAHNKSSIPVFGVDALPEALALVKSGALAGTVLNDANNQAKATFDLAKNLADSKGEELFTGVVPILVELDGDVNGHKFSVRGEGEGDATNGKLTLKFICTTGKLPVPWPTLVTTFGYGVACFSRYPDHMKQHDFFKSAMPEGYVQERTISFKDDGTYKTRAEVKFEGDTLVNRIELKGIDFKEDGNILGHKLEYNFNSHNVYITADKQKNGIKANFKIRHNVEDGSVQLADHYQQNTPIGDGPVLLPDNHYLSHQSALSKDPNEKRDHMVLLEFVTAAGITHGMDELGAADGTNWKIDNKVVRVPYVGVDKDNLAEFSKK
T7 sequence (P0AEE5 24-332 F39V limits assumed): as the sequence (P0AEE5 24-332 F39Q limits assumed) above, with Q16V counted along it
T2 sequence (P0AEE5 24-332 F39N limits assumed): as the sequence (P0AEE5 24-332 F39Q limits assumed) above, with Q16N counted along it
T8 sequence (P0AEE5 other isoform, or with tags, fused parts or gaps with the stated changes): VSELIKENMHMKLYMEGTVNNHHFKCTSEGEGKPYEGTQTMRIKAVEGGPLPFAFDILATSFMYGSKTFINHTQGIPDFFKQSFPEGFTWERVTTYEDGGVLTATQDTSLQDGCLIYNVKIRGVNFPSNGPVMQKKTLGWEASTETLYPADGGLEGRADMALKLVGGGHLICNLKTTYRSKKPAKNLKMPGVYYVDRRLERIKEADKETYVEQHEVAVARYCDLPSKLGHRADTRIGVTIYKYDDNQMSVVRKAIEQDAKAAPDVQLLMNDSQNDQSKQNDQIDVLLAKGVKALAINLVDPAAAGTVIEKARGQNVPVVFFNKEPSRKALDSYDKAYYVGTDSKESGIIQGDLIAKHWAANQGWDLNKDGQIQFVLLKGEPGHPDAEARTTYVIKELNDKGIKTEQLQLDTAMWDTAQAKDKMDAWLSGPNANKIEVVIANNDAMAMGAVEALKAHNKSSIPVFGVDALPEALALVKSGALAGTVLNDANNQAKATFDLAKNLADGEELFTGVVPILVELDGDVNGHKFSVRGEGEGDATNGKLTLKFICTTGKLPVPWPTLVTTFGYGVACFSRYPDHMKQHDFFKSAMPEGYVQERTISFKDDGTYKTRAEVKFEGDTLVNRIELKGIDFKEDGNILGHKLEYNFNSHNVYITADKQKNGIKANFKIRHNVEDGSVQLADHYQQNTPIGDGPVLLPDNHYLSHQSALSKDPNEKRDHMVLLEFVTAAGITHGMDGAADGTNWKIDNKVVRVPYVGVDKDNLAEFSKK
T3 sequence (P0AEE5 other isoform, or with tags, fused parts or gaps with the stated changes): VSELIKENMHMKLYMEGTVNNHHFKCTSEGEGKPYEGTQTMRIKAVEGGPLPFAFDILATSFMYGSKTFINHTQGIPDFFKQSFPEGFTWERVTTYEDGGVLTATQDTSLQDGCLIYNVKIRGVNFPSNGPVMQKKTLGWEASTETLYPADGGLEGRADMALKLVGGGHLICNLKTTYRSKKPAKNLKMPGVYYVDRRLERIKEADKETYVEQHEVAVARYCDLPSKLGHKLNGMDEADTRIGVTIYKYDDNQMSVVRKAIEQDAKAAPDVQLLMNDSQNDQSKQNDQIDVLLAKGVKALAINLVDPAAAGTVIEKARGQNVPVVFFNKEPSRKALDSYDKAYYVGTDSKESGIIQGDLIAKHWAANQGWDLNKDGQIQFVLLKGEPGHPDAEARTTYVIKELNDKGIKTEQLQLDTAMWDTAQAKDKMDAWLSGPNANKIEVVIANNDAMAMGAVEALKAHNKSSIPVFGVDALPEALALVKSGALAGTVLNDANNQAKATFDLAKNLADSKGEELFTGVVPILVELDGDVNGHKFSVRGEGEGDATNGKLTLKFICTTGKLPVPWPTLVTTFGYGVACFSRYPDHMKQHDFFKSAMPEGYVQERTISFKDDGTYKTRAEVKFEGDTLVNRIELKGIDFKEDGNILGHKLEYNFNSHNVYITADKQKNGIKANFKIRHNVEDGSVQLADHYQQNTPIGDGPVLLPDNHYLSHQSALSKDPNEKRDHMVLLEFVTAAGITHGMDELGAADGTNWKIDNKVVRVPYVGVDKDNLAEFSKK
T4 sequence (P0AEE5 24-332 F39A limits assumed): as the sequence (P0AEE5 24-332 F39Q limits assumed) above, with Q16A counted along it

Consider `OC[C@H]1OC(O)[C@H](O)[C@@H](O)[C@@H]1O` (some centres unmarked) [glucose], for which the “Kd at different temperatures” value is “Kd increased with temperature for all four molecules; the change was greatest for D279, and smallest for D274” in assay [1]; “Kd increased with temperature for all four molecules” in assay [3]; “Kd increased with temperature for all four molecules” in assay [6]; “Kd increased with temperature for all four molecules; the change was greatest for D279” in assay [8]. For the same compound, the Kd turned out to be 9.4 mM in assay [2], 3.2 mM in assay [4], 0.3 mM in assay [5] and 7.9 mM in assay [7].
